Measured values from patent publication US8795222B2, “Device and method for treatment of surface infections with nitric oxide” (Pulmonox Technologies Corp., priority 2000, dated 2014).

How the values were obtained:
Group B Streptococci = assay: Bacteriocidal time study, 200 ppm gNO, saline suspension; assay type: cell-based, Group B Streptococcus
Experimental: (§1) Following the dose and time ranging studies, a series of experiments were performed to determine the time required to effectively induce a bacteriocidal effect with 200 parts per million of gNO, a concentration just above the dose used in the dose-ranging study, on a representative collection of drug resistant gram-positive and gram-negative strains of bacteria associated with clinical infection. A successful bacteriocidal effect was defined as a decrease in bacteria greater than 3 log10 cfu/ml. Further, C. albicans, Methicillin Resistant S. aureus (MRSA), a particularly resistant strain of P. aeruginosa from a cystic fibrosis patient, Group B Streptococcus, and M. smegmatis were also included to see if yeast, multi-drug resistant strains of bacteria, and actinomycetes have a similar response. The drug-resistant bacteria represent a variety of pathogens that contribute to both respiratory and wound infections.
(§2) For these experiments, saline was selected as a suspension media because it would not mask the direct effect of gNO as a bacteriocidal, whereas fully supplemented growth medium might introduce external variables (e.g., buffer or react with gNO). Other media might also provide metabolites and replenish nutrients that produce enzymes that protect bacteria from oxidative and nitrosative damage, thereby masking the effect of gNO. […] In saline, the colonies were static but remained viable. This is similar to the approach of Webert and Jean's use of animal models. Webert K E, et al (2000), Effects of inhaled nitric oxide in a rat model of Pseudomonas aeruginosa pneumonia, Crit. Care Med, 28(7):2397-2405 and Jean D, et al., (2002) Beneficial effects of nitric oxide inhalation on pulmonary bacterial clearance, Critical Care Medicine. 30(2):442-7.
(§3) The latent period was then followed by an abrupt death of all cells. Gram negative and gram positive bacteria, antibiotic resistant bacterial strains, yeast and mycobacteria were all susceptible to 200 ppm gNO. Of importance, is the observation that the two drug resistant bacteria strains were also susceptible.

[1] = test system: all microorganisms tested; assay: Bacteriocidal time study, 200 ppm gNO, saline suspension, all organisms together; assay type: cell-based
Experimental: as §1, §2, §3

Staphylococcus aureus = assay: Full thickness infected wound model, wound bacterial content; assay type: in vivo, rabbits
Text: FIG. 9 illustrates wound bacterial content following topical application of 200 ppm gNO in a full thickness infected wound model in rabbits.
In vivo studies in animal models have further shown the beneficial effects of nitric oxide gas. In an animal model, full-thickness cutaneous wounds (Set A: four rabbits with eight 8.0 mm punch biopsies & Set B: 4 rabbits with two 50×15 mm wounds) were made on each side of dorsal midline and infected with equal volume of Staphylococcus aureus suspension on day zero. On day one, treated groups in A and B were respectively exposed to 200 and 400 ppm gNO for total of three days. […] A 24-hour continuous delivery model was used for animals in Set B by design of a specialized wound patch. Control groups were only exposed to medical grade air with corresponding flow rate. Four random sample punch biopsies (8.0 mm) were collected on post wounding days 3 and analyzed for bacterial content. Another four punch biopsies from both wound and normal skin tissue were collected for fibroblast viability analysis and toxic effects of gNO.
(§4) On average well over 10 fold drop (p<0.05) in bacterial content is observed in comparison between control and treated groups.

[2] = Full thickness infected wound model, toxicity, serum NOx and methemoglobin; assay type: in vivo, rabbits
Text: (§5) In vivo studies in animal models have further shown the beneficial effects of nitric oxide gas. In an animal model, full-thickness cutaneous wounds (Set A: four rabbits with eight 8.0 mm punch biopsies & Set B: 4 rabbits with two 50×15 mm wounds) were made on each side of dorsal midline and infected with equal volume of Staphylococcus aureus suspension on day zero. On day one, treated groups in A and B were respectively exposed to 200 and 400 ppm gNO for total of three days. Set A was exposed for two 4-hour sessions, interrupted by 1-hour of rest, inside a specialized restraining exposure chamber. A 24-hour continuous delivery model was used for animals in Set B by design of a specialized wound patch. Control groups were only exposed to medical grade air with corresponding flow rate. Four random sample punch biopsies (8.0 mm) were collected on post wounding days 3 and analyzed for bacterial content. Another four punch biopsies from both wound and normal skin tissue were collected for fibroblast viability analysis and toxic effects of gNO.
as §4
FIG. 12 indicates the level of methemoglobin (MetHb) in animal's blood following 6 day intermittent exposure to 200 ppm gNO.

[3] = test system: full thickness infected wound; assay: Histology of full thickness infected wound biopsies; assay type: in vivo, rabbits; details: 200 ppm gNO
Experimental: FIG. 13 illustrates histology analysis of full thickness infected wound exposed to 200 ppm gNO for 24 hours.
as §5
FIG. 13 presents histological analysis of tissue blocks prepared on wound punch biopsies from animals in treated and control groups. Samples from the control group show more advanced neutrophil infiltration and so a higher degree of inflammatory reaction. […] Wounds treated with gNO also show a layer of scab closing on the wound, but control wounds remain open for longer period of time.

Fibroblast cells = assay: Fibroblast viability study in gNO chamber; assay type: cell-based, human
Experimental: Fibroblast cells obtained from adult patients undergoing elective reconstructive surgery were cultured in Dulbeco's Modified Eagle's Medium (DMEM), supplemented with 10% fetal bovine serum (FBS) and antibiotic-antimycotic preparation and divided into ten 25 cm^2 vented culture flasks (COSTAR). […] The NO exposure chamber was validated prior to the study to eliminate extraneous variables and ensure optimal conditions for fibroblast cell growth. Another four flasks (control group) were placed inside conventional culture incubator and exposed only to ambient humidified air at 37° C. Two flasks were separately harvested and counted as the number of cells at zero time. Following the treatment, fibroblast cells were harvested and evaluated for morphology, cell count, capacity to proliferate and medium pH.
Cells under gNO appeared healthy and attached to the culture plates.
Capability of cells to reattach to the culture plates within a specified time limit is commonly used as an indication of viability of cells in culture. Both the control and treated groups show a 70% attachment capacity within 1 hour of culturing.

human endothelial cells = assay: Tube formation in matrigel; assay type: cell-based; details: 200 ppm NO versus air, 8 hours or 24 hours
Experimental: Left panels at 8 hours of exposure. Right panels at 24 hours of exposure.

[4] = average of the 13 bacteria listed above it, without Mycobacterium

[N]=O [gNO, nitric oxide]
LD100 (Group B Streptococci): 2 h | Latent Period* (Group B Streptococci): 1 h | −2.5 Log10 (Group B Streptococci; time to −2.5 log10 cfu/ml): 1.5 hrs | bacteriocidal effect [1]: completely bacteriocidal effect | LD100, Average [1, 4]: 4.77 h | Latent Period*, Average [1, 4]: 2.77 h | −2.5 Log10, Average [1, 4]: 3.82 hrs | reduction in cfu/ml ([1]; every bacteria challenged): at least a three log10 reduction | wound bacterial content (Staphylococcus aureus; 200 ppm gNO continuously for 72 hours, compared with medical air control): significant bacterial reduction | drop in wound bacterial content (Staphylococcus aureus; 400 ppm gNO, control versus treated, p<0.05): over 10 fold | blood serum NOx (NO2 and NO3) level ([2]; 200 ppm gNO intermittently for 6 days): None of the samples show an increased level of NOx | toxic effect or damage in the skin of treated animals ([2]; 200 ppm gNO, compared with control): no toxic effect or damage were observed | blood methemoglobin (MetHb) level ([2]; 6 day intermittent exposure to 200 ppm gNO, compared with air control): did not show an increase level of MetHB | toxic effects (cellular debris due to apoptosis), histology [3]: No toxic effects | healing process, histology ([3]; compared with control wounds): healthier healing process | neutrophil infiltration in wound ([3]; compared with control wounds): lower level of neutrophil concentration | attachment capacity (Fibroblast cells; 160 ppm gNO, within 1 hour of culturing, control the same): 70% | proliferation of fibroblast cells (Fibroblast cells; 200 ppm NO, compared with control): positive effect of increasing proliferation | harmful effects on the fibroblast (Fibroblast cells; around 200 ppm gNO, 24 and 48 hours): did not have harmful effects | toxic effect, morphology and attachment (Fibroblast cells; gNO concentrations less than 200 ppm continuously for 48 hours): No toxic effect | tube formation (human endothelial cells): no significant difference
